{
  "source": "patent US20250186391A1",
  "about": "“ORAL COMPLEMENT FACTOR D INHIBITORS” (BioCryst Pharmaceuticals, Inc., priority 2019, published 2025)",
  "data": [
    {"target": "Factor D (Homo sapiens (Human), UniProt P00746)", "sequence (P00746 26-253)": "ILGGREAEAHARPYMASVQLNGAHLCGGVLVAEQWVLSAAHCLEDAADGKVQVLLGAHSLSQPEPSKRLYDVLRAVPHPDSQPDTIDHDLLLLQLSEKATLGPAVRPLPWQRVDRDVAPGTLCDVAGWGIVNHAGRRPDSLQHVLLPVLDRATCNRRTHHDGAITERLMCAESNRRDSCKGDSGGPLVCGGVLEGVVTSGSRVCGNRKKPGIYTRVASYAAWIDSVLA", "experiment": "Factor D esterolytic assay", "format": "biochemical", "settings": "Z-Lys-SBzl substrate, 100 mM HEPES, 500 mM NaCl, pH 7.5, 10% DMSO; tested a minimum of three times; read-out: Measured Ki (IC50) Value for Compounds: IC50", "how_it_was_run": "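Buffer was 100 mM HEPES, 500 mM NaCl, pH 7.5 with 10% DMSO. Compound and Factor D were combined, then Z-Lys-SBzl (1.29 mM) was added either at once or following room-temperature incubation. Rates came from DTNB colour at 405 nm minus 690 nm over 600 s, with percent inhibition giving IC50 over at least three tests.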", "units": {"IC50": "µM"}, "values": [
      {"smiles": "NCc1cccc(-c2cc(OCC3CC3)c3occ(COc4ccccc4CC(=O)O)c3c2)c1", "note": "[Compound 159f, 2-(2-((5-(3-(aminomethyl)phenyl)-7-(cyclopropylmethoxy)benzofuran-3-yl)methoxy)phenyl)acetic acid]", "IC50": "< 1"},
      {"smiles": "COc1ccc(CC(=O)O)c(OCc2c(C)oc3ccc(-c4cccc([C@H](C)N)c4)cc23)c1", "note": "[Compound 240b, (S)-2-(2-((5-(3-(1-aminoethyl)phenyl)-2-methylbenzofuran-3-yl)methoxy)-4-methoxyphenyl)acetic acid]", "IC50": "< 1"},
      {"smiles": "NCc1cccc(-c2ccc3occ(COc4ccccc4CC(=O)O)c3c2)c1", "note": "[Compound 9e, 2-(2-((5-(3-(aminomethyl)phenyl)benzofuran-3-yl)methoxy)phenyl)acetic acid]", "IC50": "< 1"},
      {"smiles": "NCc1cccc(-c2ccc3oc(C(O)C(F)(F)F)c(COc4ccccc4CC(=O)O)c3c2)c1", "note": "(centres unmarked) [Compound 140c, 2-(2-((5-(3-(aminomethyl)phenyl)-2-(2,2,2-trifluoro-1-hydroxyethyl)benzofuran-3-yl)methoxy)phenyl)acetic acid]", "IC50": "< 1"},
      {"smiles": "NCc1cccc(-c2ccc3occ(Cc4ccccc4CC(=O)O)c3c2)c1", "note": "[Compound 73f, 2-(2-((5-(3-(aminomethyl)phenyl)benzofuran-3-yl)methyl)phenyl)acetic acid]", "IC50": "1 to 10"},
      {"smiles": "NCc1cccc(-c2ccc3occ(COc4cc(N)ccc4CC(=O)O)c3c2)c1", "note": "[Compound 84b, 2-(4-amino-2-((5-(3-(aminomethyl)phenyl)benzofuran-3-yl)methoxy)phenyl)acetic acid]", "IC50": "< 1"},
      {"smiles": "NCc1cccc(-c2ccc3occ(COc4c(CC(=O)O)cccc4C(N)=O)c3c2)c1", "note": "[Compound 114i, 2-(2-((5-(3-(aminomethyl)phenyl)benzofuran-3-yl)methoxy)-3-carbamoylphenyl)acetic acid]", "IC50": "1 to 10"},
      {"smiles": "COc1ccc(CC(=O)O)c(OCc2c(C(C)=O)oc3ccc(-c4cccc(CN)c4)cc23)c1", "note": "[Compound 218c, 2-(2-((2-acetyl-5-(3-(aminomethyl)phenyl)benzofuran-3-yl)methoxy)-4-methoxyphenyl)acetic acid]", "IC50": "< 1"},
      {"smiles": "CC(C)(C)OC(=O)N(Cc1cc(-c2cccc(CN)c2)cc2c(COc3ccccc3CC(=O)O)coc12)CC(F)(F)F", "note": "[Compound 177g, 2-(2-((5-(3-(aminomethyl)phenyl)-7-(((tert-butoxycarbonyl)(2,2,2-trifluoroethyl)amino)methyl)benzofuran-3-yl)methoxy)phenyl)acetic acid]", "IC50": "< 1"},
      {"smiles": "CC(C)c1ccc(CC(=O)O)c(OCc2coc3ccc(-c4cccc(CN)c4)cc23)c1", "note": "[Compound 190f, 2-(2-((5-(3-(aminomethyl)phenyl)benzofuran-3-yl)methoxy)-4-isopropylphenyl)acetic acid]", "IC50": "< 1"},
      {"smiles": "NCc1cccc(-c2cc(OCCC3CCOCC3)c3occ(COc4ccccc4CC(=O)O)c3c2)c1", "note": "[Compound 249f, 2-(2-((5-(3-(aminomethyl)phenyl)-7-(2-(tetrahydro-2H-pyran-4-yl)ethoxy)benzofuran-3-yl)methoxy)phenyl)acetic acid]", "IC50": "< 1"},
      {"smiles": "NCc1cccc(-c2ccc3occ(COc4c(F)cccc4CC(=O)O)c3c2)c1F", "note": "[Compound 46b, 2-(2-((5-(3-(aminomethyl)-2-fluorophenyl)benzofuran-3-yl)methoxy)-3-fluorophenyl)acetic acid]", "IC50": "< 1"},
      {"smiles": "Cc1cc(-c2cccc(CN)c2)cc2c(COc3ccccc3CC(=O)O)coc12", "note": "[Compound 17e, 2-(2-((5-(3-(aminomethyl)phenyl)-7-methylbenzofuran-3-yl)methoxy)phenyl)acetic acid]", "IC50": "< 1"},
      {"smiles": "NCc1cccc(-c2cc(C(F)(F)F)c3occ(COc4ccccc4CC(=O)O)c3c2)c1", "note": "[Compound 113g, 2-(2-((5-(3-(aminomethyl)phenyl)-7-(trifluoromethyl)benzofuran-3-yl)methoxy)phenyl)acetic acid]", "IC50": "< 1"},
      {"smiles": "COc1ccc(CC(=O)O)c(OCc2c(C)oc3ccc(-c4cccc(CN)c4)cc23)c1", "note": "[Compound 138c, 2-(2-((5-(3-(aminomethyl)phenyl)-2-methylbenzofuran-3-yl)methoxy)-4-methoxyphenyl)acetic acid]", "IC50": "< 1"},
      {"smiles": "NCc1cccc(-c2cc(CN3CCNCC3)c3occ(COc4ccccc4CC(=O)O)c3c2)c1", "note": "[Compound 122b, 2-(2-((5-(3-(aminomethyl)phenyl)-7-(piperazin-1-ylmethyl)benzofuran-3-yl)methoxy)phenyl)acetic acid]", "IC50": "< 1"},
      {"smiles": "NCc1cccc(-c2ccc3c(c2)c(COc2ccccc2CC(=O)O)nn3C2CCCCC2)c1", "note": "[Compound 259c, 2-(2-((5-(3-(aminomethyl)phenyl)-1-cyclohexyl-1H-indazol-3-yl)methoxy)phenyl)acetic acid]", "IC50": "< 1"},
      {"smiles": "COc1ccc(CC(=O)O)c(OCc2c(C)oc3ccc(-c4cccc(CN)c4F)cc23)c1", "note": "[Compound 201b, 2-(2-((5-(3-(aminomethyl)-2-fluorophenyl)-2-methylbenzofuran-3-yl)methoxy)-4-methoxyphenyl)acetic acid]", "IC50": "< 1"},
      {"smiles": "NCc1cccc(-c2cc(NCC3CCCC3)c3occ(COc4ccccc4CC(=O)O)c3c2)c1", "note": "[Compound 146d, 2-(2-((5-(3-(aminomethyl)phenyl)-7-((cyclopentylmethyl)amino)benzofuran-3-yl)methoxy)phenyl)acetic acid]", "IC50": "< 1"},
      {"smiles": "NCc1cccc(-c2cc3c(COc4ccccc4CC(=O)O)csc3c3occc23)c1", "note": "[Compound 232h, 2-(2-((4-(3-(aminomethyl)phenyl)thieno[3,2-g]benzofuran-6-yl)methoxy)phenyl)acetic acid]", "IC50": "< 1"},
      {"smiles": "CCNc1cc(-c2cccc(CN)c2)cc2c(COc3ccccc3CC(=O)O)coc12", "note": "[Compound 150d, 2-(2-((5-(3-(aminomethyl)phenyl)-7-(ethylamino)benzofuran-3-yl)methoxy)phenyl)acetic acid]", "IC50": "< 1"},
      {"smiles": "NCc1nccc(-c2ccc3occ(COc4ccccc4CC(=O)O)c3c2)c1F", "note": "[Compound 50d, 2-(2-((5-(2-(aminomethyl)-3-fluoropyridin-4-yl)benzofuran-3-yl)methoxy)phenyl)acetic acid]", "IC50": "< 1"},
      {"smiles": "CC(C)n1nc(COc2ccccc2CC(=O)O)c2cc(-c3cccc([C@H](N)CO)c3)ccc21", "note": "[Compound 267b, (S)-2-(2-((5-(3-(1-amino-2-hydroxyethyl)phenyl)-1-isopropyl-1H-indazol-3-yl)methoxy)phenyl)acetic acid]", "IC50": "< 1"},
      {"smiles": "NCc1cccc(-c2cc(-c3cc4ccccc4[nH]3)c3occ(COc4ccccc4CC(=O)O)c3c2)c1", "note": "[Compound 137c, 2-(2-((5-(3-(aminomethyl)phenyl)-7-(1H-indol-2-yl)benzofuran-3-yl)methoxy)phenyl)acetic acid]", "IC50": "< 1"},
      {"smiles": "CN(Cc1cc(-c2cccc(CN)c2)cc2c(COc3ccccc3CC(=O)O)coc12)CC1CC1", "note": "[Compound 263e, 2-(2-((5-(3-(aminomethyl)phenyl)-7-(((cyclopropylmethyl)(methyl)amino)methyl)benzofuran-3-yl)methoxy)phenyl)acetic acid]", "IC50": "< 1"},
      {"smiles": "CC(C)n1nc(COc2cccc(C(=O)O)c2)c2cc(-c3cccc(CN)c3)ccc21", "note": "[Compound 303d, 3-((5-(3-(aminomethyl)phenyl)-1-isopropyl-1H-indazol-3-yl)methoxy)benzoic acid]", "IC50": "> 10"},
      {"smiles": "NCc1cccc(-c2cc(C(O)C(F)(F)F)c3occ(COc4ccccc4CC(=O)O)c3c2)c1", "note": "(centres unmarked) [Compound 257h, 2-(2-((5-(3-(aminomethyl)phenyl)-7-(2,2,2-trifluoro-1-hydroxyethyl)benzofuran-3-yl)methoxy)phenyl)acetic acid]", "IC50": "< 1"},
      {"smiles": "COc1cc(-c2cccc(CN)c2)cc2c(COc3ccccc3CC(=O)O)coc12", "note": "[Compound 18e, 2-(2-((5-(3-(aminomethyl)phenyl)-7-methoxybenzofuran-3-yl)methoxy)phenyl)acetic acid]", "IC50": "< 1"},
      {"smiles": "CC(C)n1nc(COc2ccccc2CC(=O)O)c2cc(-c3cccc([C@H](C)N)c3)ccc21", "note": "[Compound 320b, (S)-2-(2-((5-(3-(1-aminoethyl)phenyl)-1-isopropyl-1H-indazol-3-yl)methoxy)phenyl)acetic acid]", "IC50": "< 1"},
      {"smiles": "NCc1cccc(-c2cc(C(=O)O)cc3cc(COc4ccccc4CC(=O)O)oc23)c1", "note": "[Compound 37b, 7-(3-(aminomethyl)phenyl)-2-((2-(carboxymethyl)phenoxy)methyl)benzofuran-5-carboxylic acid]", "IC50": "1 to 10"},
      {"smiles": "NCc1cccc(-c2cc(-c3c[nH]c4ccccc34)c3occ(COc4ccccc4CC(=O)O)c3c2)c1", "note": "[Compound 136d, 2-(2-((5-(3-(aminomethyl)phenyl)-7-(1H-indol-3-yl)benzofuran-3-yl)methoxy)phenyl)acetic acid]", "IC50": "< 1"},
      {"smiles": "CC(C)(C)c1oc2ccc(-c3cccc(CN)c3)cc2c1COc1cc(F)ccc1CC(=O)O", "note": "[Compound 173c, 2-(2-((5-(3-(aminomethyl)phenyl)-2-(tert-butyl)benzofuran-3-yl)methoxy)-4-fluorophenyl)acetic acid]", "IC50": "< 1"},
      {"smiles": "COc1c(-c2ccc3c(c2)c(COc2ccccc2CC(=O)O)nn3C2CCC2)ccnc1CN", "note": "[Compound 328d, 2-(2-((5-(2-(aminomethyl)-3-methoxypyridin-4-yl)-1-cyclobutyl-1H-indazol-3-yl)methoxy)phenyl)acetic acid]", "IC50": "> 10"},
      {"smiles": "NCc1cccc(-c2ccc3snc(COc4ccccc4CC(=O)O)c3c2)c1", "note": "[Compound 93e, 2-(2-((5-(3-(aminomethyl)phenyl)benzo[d]isothiazol-3-yl)methoxy)phenyl)acetic acid]", "IC50": "< 1"},
      {"smiles": "COc1c(CN)cccc1-c1ccc2c(c1)c(COc1ccccc1CC(=O)O)nn2C(C)C", "note": "[Compound 325b, 2-(2-((5-(3-(aminomethyl)-2-methoxyphenyl)-1-isopropyl-1H-indazol-3-yl)methoxy)phenyl)acetic acid]", "IC50": "1 to 10"}
    ]}
  ]
}
